# Test results published in US20250041624A1, “METHOD FOR ENHANCING ACTIVITY OF PHOTOSENSITIZER BY MAGNETIC FIELD” (PEKING UNIVERSITY, priority 2021, published 2025).
# Assays:
# [1] = Singlet oxygen quantum yield and lifetime (1270 nm phosphorescence in D2O) under magnetic field; format: physicochemical; conditions: for τΔ (lifetime of singlet oxygen): RB 10 μmol/L in D2O
# Procedure: (4) Singlet oxygen (^1O2), quantum yield (ΦΔ) and lifetime (τΔ) are measured by the following experiment. The phosphorescence of singlet oxygen (^1O2) generated at 1270 nm is determined in air saturated D2O solution of RB (10 μmol/L). The solution is excited at 561 nm.
# The magnetic field effect MFs (ΦΔ,B) is calculated by the following formula: ΦΔ,B=ΦΔ,0×(IB/I0), where IB and I0 are peak areas of emission peaks at a magnetic field strength of B and without magnetic field strength, respectively.
# The change rate of the magnetic field effect is:
# The lifetime (τΔ) of singlet oxygen (^1O2) is affected by the magnetic field effect is as follows: […]
# HeLa cells [2] = experiment: 14-day culture and crystal violet staining of HeLa cells after light and magnetic field; format: cell-based
# Procedure: (2) HeLa cells (1×10^3/well) are seeded in 6-well plates, 30 μL aqueous solution of RB (final concentration of 30 μM) or equal volume 0.01M PBS buffer is added as control, and, after 24 h incubation in DMEM (comprising FBS) medium, cells are washed 3 times with PBS buffer.
# The cells are treated in the dark or with 10 min light (561 nm […], 5 mW·cm^−2) under magnetic field conditions at 0 mT, 250 mT, 800 mT respectively. Culture is continued in the dark, and media is changed every other day. After 14 days, it is rinsed with PBS buffer and methanol, and cells are stained with added 0.1 wt % aqueous solution of crystal violet, and the number of cells in the plate is shown in FIG. 9; and the relative cell activity of HeLa cells at a concentration of 30 μmol/L RB under the magnetic field conditions of 0 mT, 250 mT, 800 mT is shown in FIG. 10.
# HeLa cells [3] = experiment: H2DCFDA fluorescence imaging of intracellular oxidation in HeLa cells; format: cell-based; conditions: RB 30 μmol/L, FIG. 11
# Procedure: (1) HeLa cells are seeded on sterile glass coverslips and placed in DMEM (comprising FBS) plates for 12 h. Then appropriate amount of 30 μmol/L RB or 0.01 mol/L PBS buffer is added, respectively. After 24 h in dark, H2DCFDA (dichlorofluorescein diacetate, ≥97%, purchased from Sigma-Aldrich) is added to give final concentration of 10 μmol/L and cells are incubated for another 30 min, and then are washed 3 times with PBS buffer.
# Said HeLa cells are placed under the magnetic field conditions of 0 mT, 250 mT, 800 mT, respectively, without irradiation or with 10 min light (561 nm, 5 mW·cm^−2). Fluorescence images are obtained using Nikon A1R-si laser scanning confocal microscopy (488 nm excitation, 515±15 nm received fluorescence), where H2DCFDA is the indicator that reacts with cellular singlet oxygen ^1O2 to increase fluorescence emission intensity (excitation wavelength is 504 nm, and emission wavelength is 529 nm).
# The change rate of fluorescence intensity in Hela cells added with RB under the conditions of light and magnetic field at 0, 250 or 800 mT is shown in FIG. 12. The change rate of fluorescence intensity is (IB−I0)/I0×100%, IB is the fluorescence intensity at magnetic field strength of B, and I0 is the fluorescence intensity without magnetic field. In FIG. 12, ** is the statistical probability p<0.01; *** is p<0.005, and p<0.05 is considered significant.
# cleaved Caspase-3 = experiment: Western blot of cleaved Caspase-3 in HeLa cells; format: cell-based; conditions: RB 30 μmol/L treated HeLa; light; 250 mT vs no magnetic field
# Procedure: HeLa cells (2×10^4/well) are seeded in 6-well plates and cultured for 24 hours, added with RB solution (final concentration 30 μmol/L) or PBS buffer (final concentration 0.01 mol/L), and after treating 24 hours, cells are washed 3 times with PBS buffer.
# The cells are placed under a magnetic field at 0, 250 or 800 mT, simultaneously with light (561 nm, 5 mW·cm^−2) or in the dark. After 24 hours treatment, cells are washed with PBS buffer and collect by centrifugation. Protein is extracted from cells using RIPA lysis buffer (medium lysis strength). Target protein is detected with primary antibody, to identify cleaved Caspase-3 protease, Bax (BCL2-Associated X protein) and Bcl-2 (B lymphocytomatose-2 gene), respectively, with β-Actin antibody as the reference. Images are acquired by Bio-Rad ChemiDoc touch imaging system, and results are shown in FIG. 14, in which, group A is PBS buffer treated HeLa cells (light, no magnetic field); group B is RB treated HeLa cells (light, no magnetic field); group C is RB-treated Hela cells (light, 250 mT magnetic field); group D is RB-treated Hela cells (light, 800 mT magnetic field).
# The change rate of protein expression is (AB−A0)/A0×100%, where AB and A0 are protein expression with and without magnetic field, respectively (obtained by ImageJ software analyzing the bands in FIG. 14).
smiles,measurement,setting,value
"O=C1OC2(c3cc(I)c(O)c(I)c3Oc3c2cc(I)c(O)c3I)c2c(Cl)c(Cl)c(Cl)c(Cl)c21 [RB, Rose Bengal]",τΔ (lifetime of singlet oxygen),[1]; MF 0 mT,66.7 ± 2.8 μs
same,τΔ (lifetime of singlet oxygen),[1]; MF 30 mT,65.8 ± 7.1 μs
same,τΔ (lifetime of singlet oxygen),[1]; MF 50 mT,60.7 ± 2.0 μs
same,τΔ (lifetime of singlet oxygen),[1]; MF 90 mT,62.6 ± 3.2 μs
same,τΔ (lifetime of singlet oxygen),[1]; MF 120 mT,69.5 ± 4.7 μs
same,τΔ (lifetime of singlet oxygen),[1]; MF 150 mT,62.8 ± 0.8 μs
same,τΔ (lifetime of singlet oxygen),[1]; MF 200 mT,65.4 ± 4.5 μs
same,rate of change of luminescence quantum yield of 1O2,"[1]; RB 10 μmol/L in air saturated D2O, excited at 561 nm, with increasing magnetic field, FIG. 21",−5% to +10%
same,cytotoxicity against HeLa cells in the absence of light,"HeLa cells [2]; RB 30 μM, dark, with or without magnetic field, FIG. 9",no cytotoxicity
same,cell numbers relative to PBS-only treatment,"HeLa cells [2]; RB 30 μM, light alone (0 mT), 14 days, FIG. 9",significantly lower
same,cell numbers,"HeLa cells [2]; RB 30 μM, light, 250 mT, 14 days, FIG. 9",the least
same,cell numbers,"HeLa cells [2]; RB 30 μM, light, 800 mT, 14 days, FIG. 9",more under 800 mT conditions compared to 0 mT and 250 mT conditions
same,reduction of cell number relative to 0 mT,"HeLa cells [2]; RB 30 μmol/L, light, 250 mT, FIG. 10",17%
same,increase of cell number relative to 0 mT,"HeLa cells [2]; RB 30 μmol/L, light, 800 mT, FIG. 10",32%
same,fluorescence intensity of HeLa cells (H2DCFDA),"HeLa cells [3]; absence of magnetic field, vs PBS",stronger than that with PBS
same,fluorescence intensity of HeLa cells (H2DCFDA),HeLa cells [3]; irradiation 561 nm 10 min and 250 mT,stronger than those under the absence of magnetic field and the magnetic field of 800 mT
same,change rate of cleaved Caspase-3 expression (%),cleaved Caspase-3,34.1 ± 1.9%
